The record followed here is ChEMBL document CHEMBL1208761, “Smoothened antagonists for hair inhibition” (Bioorg Med Chem Lett, 2010).

What is called inhibition is the drop in the measured response relative to a control, in per cent. Higher therefore signals a strong effect. As usually defined, the Ki is the equilibrium dissociation constant of an inhibitor or competing ligand from its target. In general, half-life refers to how long it takes for the measured level to halve. Broadly, the IC50 is the concentration that gives 50% inhibition. Low values mean higher potency, high ones lower potency. Broadly, the Papp A→B is the apparent permeability from the apical to the basolateral side of a cell layer. For orientation: solubility means how much of the substance goes into solution per volume. A low value points to little dissolved substance.

In one data set the target is hERG (KCNH2) (Homo sapiens, UniProt Q12809). Nature of the data set: Inhibition of human ERG at 3 uM.
Chain of hERG (KCNH2) (Q12809 whole entry): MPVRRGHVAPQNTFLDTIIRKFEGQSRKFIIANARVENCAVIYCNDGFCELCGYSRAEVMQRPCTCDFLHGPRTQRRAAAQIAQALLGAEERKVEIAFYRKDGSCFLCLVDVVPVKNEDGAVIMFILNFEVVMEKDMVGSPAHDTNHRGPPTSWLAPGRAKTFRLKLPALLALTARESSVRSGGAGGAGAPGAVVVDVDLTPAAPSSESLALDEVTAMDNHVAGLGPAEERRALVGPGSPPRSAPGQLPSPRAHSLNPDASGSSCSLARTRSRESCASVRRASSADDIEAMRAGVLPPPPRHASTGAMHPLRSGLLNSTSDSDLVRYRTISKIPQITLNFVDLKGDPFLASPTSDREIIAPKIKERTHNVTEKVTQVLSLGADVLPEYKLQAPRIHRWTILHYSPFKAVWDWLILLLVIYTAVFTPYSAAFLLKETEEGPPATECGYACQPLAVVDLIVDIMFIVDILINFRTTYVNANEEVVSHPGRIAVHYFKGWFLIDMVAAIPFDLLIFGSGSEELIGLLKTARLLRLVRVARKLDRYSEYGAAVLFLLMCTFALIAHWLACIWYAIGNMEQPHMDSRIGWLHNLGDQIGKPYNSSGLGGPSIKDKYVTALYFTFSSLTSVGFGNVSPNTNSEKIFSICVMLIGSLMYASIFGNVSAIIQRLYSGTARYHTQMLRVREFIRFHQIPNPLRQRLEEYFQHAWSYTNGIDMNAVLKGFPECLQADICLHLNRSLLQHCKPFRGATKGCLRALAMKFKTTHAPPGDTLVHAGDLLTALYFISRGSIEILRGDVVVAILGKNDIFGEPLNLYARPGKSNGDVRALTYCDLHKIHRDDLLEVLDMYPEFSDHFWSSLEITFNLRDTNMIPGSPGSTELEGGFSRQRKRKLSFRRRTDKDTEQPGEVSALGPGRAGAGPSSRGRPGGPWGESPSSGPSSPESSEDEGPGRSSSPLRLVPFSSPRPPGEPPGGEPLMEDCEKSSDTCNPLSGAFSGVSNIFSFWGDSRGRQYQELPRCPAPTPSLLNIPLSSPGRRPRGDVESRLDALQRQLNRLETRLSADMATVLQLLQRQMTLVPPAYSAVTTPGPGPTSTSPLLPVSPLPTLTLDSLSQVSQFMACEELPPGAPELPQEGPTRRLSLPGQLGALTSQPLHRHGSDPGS
The target in data set [1] is T1, Alpha-1B adrenergic receptor (Homo sapiens, UniProt P35368).
T1 sequence (P35368 whole entry): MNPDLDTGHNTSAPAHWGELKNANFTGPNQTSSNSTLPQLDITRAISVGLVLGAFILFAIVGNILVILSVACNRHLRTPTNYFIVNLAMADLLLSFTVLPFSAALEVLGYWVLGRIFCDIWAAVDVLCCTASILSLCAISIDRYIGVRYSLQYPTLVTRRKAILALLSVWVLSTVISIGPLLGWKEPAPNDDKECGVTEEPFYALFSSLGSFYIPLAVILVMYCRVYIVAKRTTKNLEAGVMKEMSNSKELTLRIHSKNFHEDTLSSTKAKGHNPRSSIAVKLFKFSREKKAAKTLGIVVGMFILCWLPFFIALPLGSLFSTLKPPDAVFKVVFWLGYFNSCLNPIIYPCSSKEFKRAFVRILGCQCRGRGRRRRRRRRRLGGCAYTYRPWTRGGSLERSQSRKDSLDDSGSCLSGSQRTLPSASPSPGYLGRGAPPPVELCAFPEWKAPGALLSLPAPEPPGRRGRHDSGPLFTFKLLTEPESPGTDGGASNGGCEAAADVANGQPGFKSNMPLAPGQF
Nature of the data set: Binding affinity to adrenergic alpha-1b receptor.

Data set [2] deals with Voltage-gated inwardly rectifying potassium channel KCNH2 (Homo sapiens, UniProt Q12809). Nature of the data set: Binding affinity to human ERG.
Chain of Voltage-gated inwardly rectifying potassium channel KCNH2 (Q12809 whole entry): as the sequence (Q12809 whole entry) above
In the next data set the target is T2, D(4) dopamine receptor (Homo sapiens, UniProt P21917).
T2 sequence (P21917 whole entry): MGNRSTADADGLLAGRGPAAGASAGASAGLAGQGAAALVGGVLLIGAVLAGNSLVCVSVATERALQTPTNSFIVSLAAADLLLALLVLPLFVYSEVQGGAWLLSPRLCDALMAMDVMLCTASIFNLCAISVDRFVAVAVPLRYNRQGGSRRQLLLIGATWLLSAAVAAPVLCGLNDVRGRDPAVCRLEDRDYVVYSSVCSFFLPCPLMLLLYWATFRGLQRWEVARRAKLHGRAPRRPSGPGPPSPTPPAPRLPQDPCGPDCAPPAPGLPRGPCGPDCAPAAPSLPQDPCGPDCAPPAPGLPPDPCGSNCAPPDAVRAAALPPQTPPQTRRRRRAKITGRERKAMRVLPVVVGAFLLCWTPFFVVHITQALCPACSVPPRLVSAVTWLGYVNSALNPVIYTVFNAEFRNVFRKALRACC
Nature of the data set: Binding affinity to dopamine D4 receptor.

The nature of data set [3]: Inhibition of CYP450. In kind it is ADME.
For data set [4], the target named is T3, Alpha-1A adrenergic receptor (Homo sapiens, UniProt P35348).
T3 sequence (P35348 whole entry): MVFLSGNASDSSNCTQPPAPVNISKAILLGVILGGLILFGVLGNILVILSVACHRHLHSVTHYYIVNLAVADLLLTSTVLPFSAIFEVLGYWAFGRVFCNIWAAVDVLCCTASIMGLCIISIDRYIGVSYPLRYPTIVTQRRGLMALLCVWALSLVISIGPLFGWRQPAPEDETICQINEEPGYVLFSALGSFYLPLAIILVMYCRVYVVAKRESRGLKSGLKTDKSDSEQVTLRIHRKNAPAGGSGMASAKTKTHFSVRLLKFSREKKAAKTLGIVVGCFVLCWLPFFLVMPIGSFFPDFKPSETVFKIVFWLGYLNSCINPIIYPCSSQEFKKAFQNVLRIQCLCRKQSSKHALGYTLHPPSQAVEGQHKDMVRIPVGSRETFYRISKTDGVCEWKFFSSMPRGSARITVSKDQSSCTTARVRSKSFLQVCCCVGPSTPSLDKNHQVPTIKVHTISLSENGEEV
Nature of the data set: Binding affinity to adrenergic Alpha-1A receptor.

The next data set is filed under the species Mus musculus. Nature of the data set: Inhibition of hair growth in C3H/HeN mouse model assessed as inhibition of hair growth after 14 days. In kind it is functional.
Data set [5] in a line: Metabolic stability in rat liver microsomes assessed as half life. In kind it is ADME, Microsome. (In general: Microsomes from liver hold many membrane-bound enzymes, among them those of drug oxidation.)
The target in data set [6] is T4, Protein smoothened (Homo sapiens, UniProt Q99835). Nature of the data set: Inhibition of Smoothened transfected in HEK293 cells by binding assay. In kind it is cell-based.
T4 sequence (Q99835 whole entry): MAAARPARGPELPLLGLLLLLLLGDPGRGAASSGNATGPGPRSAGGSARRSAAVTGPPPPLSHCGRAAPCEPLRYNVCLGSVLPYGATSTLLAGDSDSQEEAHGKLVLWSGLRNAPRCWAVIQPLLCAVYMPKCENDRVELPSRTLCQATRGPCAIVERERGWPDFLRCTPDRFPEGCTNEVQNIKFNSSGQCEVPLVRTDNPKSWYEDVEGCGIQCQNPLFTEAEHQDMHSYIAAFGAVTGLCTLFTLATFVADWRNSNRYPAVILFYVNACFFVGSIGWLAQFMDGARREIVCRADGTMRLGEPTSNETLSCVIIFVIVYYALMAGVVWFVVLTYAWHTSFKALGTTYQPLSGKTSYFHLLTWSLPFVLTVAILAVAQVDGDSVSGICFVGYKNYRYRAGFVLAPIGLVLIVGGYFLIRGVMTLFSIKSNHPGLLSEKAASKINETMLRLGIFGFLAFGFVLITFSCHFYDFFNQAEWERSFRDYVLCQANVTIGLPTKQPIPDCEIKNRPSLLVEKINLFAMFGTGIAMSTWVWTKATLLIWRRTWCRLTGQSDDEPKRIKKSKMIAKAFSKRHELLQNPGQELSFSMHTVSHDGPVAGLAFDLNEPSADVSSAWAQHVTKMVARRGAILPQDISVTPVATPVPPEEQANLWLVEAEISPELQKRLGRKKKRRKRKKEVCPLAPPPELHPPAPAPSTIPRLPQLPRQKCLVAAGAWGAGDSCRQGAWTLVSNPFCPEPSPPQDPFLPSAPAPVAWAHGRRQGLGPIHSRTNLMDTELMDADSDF
Data set [7] concerns the target T5, 5-hydroxytryptamine receptor 1A (Homo sapiens, UniProt P08908).
T5 sequence (P08908 whole entry): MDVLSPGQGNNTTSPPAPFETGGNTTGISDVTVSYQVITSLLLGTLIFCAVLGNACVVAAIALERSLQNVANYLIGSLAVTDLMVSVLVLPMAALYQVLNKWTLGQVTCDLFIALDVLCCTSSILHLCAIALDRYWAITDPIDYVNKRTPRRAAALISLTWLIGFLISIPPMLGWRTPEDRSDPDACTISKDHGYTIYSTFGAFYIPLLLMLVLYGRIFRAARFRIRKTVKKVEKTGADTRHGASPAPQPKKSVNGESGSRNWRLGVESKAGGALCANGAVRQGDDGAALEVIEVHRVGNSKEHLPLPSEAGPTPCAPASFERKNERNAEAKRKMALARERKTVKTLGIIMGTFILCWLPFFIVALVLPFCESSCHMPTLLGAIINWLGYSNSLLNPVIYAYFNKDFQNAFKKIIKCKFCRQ
Nature of the data set: Binding affinity to 5HT1A receptor.

The nature of data set [8]: Metabolic stability in human liver microsomes assessed as half life. In kind it is ADME, Microsome.
The target of data set [9] is 5-hydroxytryptamine receptor 2A (Homo sapiens, UniProt P28223). Nature of the data set: Binding affinity to 5HT2A receptor.
Chain of 5-hydroxytryptamine receptor 2A (P28223 whole entry): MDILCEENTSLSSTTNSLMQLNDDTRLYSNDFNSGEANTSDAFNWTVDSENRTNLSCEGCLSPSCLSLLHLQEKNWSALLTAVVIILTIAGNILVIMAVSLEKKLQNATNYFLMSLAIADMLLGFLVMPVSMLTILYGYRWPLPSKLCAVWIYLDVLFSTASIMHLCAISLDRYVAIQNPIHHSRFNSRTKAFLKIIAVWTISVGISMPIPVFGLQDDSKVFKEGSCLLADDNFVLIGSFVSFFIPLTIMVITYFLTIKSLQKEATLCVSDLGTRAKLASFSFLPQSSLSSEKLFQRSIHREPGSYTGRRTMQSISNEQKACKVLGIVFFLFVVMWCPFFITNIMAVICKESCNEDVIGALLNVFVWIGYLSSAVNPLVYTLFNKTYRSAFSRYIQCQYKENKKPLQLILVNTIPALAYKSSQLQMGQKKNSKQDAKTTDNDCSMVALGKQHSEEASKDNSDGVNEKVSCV
Data set [10] can be described thus: Apparent permeability from apical to basolateral side of cell membrane at 10 uM. In kind it is ADME. The conditions noted are these: not told.
Data set [11] can be described thus: Solubility of the compound. In kind it is physicochemical.
In data set [12] the target is T4, Protein smoothened. Nature of the data set: Inhibition of Smoothened transfected in HEK293 cells by transient transfection cell-based assay.
In the next data set the test system is Zone of skin. Nature of the data set: Permeability of the compound in human skin assessed as skin penetration relative to isobutylmethylxanthine. In kind it is ADME, tissue-based.
Data set [13] deals with Beta-2 adrenergic receptor (Homo sapiens, UniProt P07550). Nature of the data set: Binding affinity to beta2 adrenergic receptor.
Chain of Beta-2 adrenergic receptor (P07550 whole entry): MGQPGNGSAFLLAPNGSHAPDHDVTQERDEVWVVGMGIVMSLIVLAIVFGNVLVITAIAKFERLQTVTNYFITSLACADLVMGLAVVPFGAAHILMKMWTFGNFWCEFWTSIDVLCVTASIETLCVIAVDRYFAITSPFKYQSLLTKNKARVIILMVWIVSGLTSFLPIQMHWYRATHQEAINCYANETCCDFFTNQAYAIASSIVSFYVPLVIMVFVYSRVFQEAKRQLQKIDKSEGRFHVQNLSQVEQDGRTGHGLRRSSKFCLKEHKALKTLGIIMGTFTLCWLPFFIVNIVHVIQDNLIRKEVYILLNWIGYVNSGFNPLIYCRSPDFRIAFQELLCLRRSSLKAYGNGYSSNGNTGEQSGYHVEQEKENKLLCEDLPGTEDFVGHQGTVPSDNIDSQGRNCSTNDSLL
In data set [14] the target is 5-hydroxytryptamine receptor 7 (Homo sapiens, UniProt P34969). Nature of the data set: Binding affinity to 5HT7 receptor.
Chain of 5-hydroxytryptamine receptor 7 (P34969 whole entry): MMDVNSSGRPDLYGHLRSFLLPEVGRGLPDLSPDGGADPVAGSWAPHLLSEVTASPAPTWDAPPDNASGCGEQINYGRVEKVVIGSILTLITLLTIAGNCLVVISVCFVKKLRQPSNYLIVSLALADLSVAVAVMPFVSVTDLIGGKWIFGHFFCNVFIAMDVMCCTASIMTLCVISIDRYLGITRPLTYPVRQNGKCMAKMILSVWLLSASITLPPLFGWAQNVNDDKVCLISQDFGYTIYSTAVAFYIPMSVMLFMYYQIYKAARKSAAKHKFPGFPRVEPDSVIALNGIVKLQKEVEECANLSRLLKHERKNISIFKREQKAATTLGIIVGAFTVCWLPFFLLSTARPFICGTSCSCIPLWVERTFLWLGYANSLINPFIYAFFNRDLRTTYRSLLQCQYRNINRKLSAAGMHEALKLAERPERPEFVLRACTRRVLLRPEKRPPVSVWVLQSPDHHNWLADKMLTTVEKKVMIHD
A further data set addresses D(2) dopamine receptor (Homo sapiens, UniProt P14416). Nature of the data set: Binding affinity to dopamine D2 receptor.
In data set [15] the target is Beta-1 adrenergic receptor (Homo sapiens, UniProt P08588). Nature of the data set: Binding affinity to beta-1 adrenergic receptor.
Data set [16] in a line: Binding affinity to calcium channel.
The target in a further data set is D(1A) dopamine receptor (Homo sapiens, UniProt P21728). Nature of the data set: Binding affinity to dopamine D1 receptor.
In data set [17] the target is 5-hydroxytryptamine receptor 2B (Homo sapiens, UniProt P41595). Nature of the data set: Binding affinity to 5HT2B receptor.
Chain of 5-hydroxytryptamine receptor 2B (P41595 whole entry): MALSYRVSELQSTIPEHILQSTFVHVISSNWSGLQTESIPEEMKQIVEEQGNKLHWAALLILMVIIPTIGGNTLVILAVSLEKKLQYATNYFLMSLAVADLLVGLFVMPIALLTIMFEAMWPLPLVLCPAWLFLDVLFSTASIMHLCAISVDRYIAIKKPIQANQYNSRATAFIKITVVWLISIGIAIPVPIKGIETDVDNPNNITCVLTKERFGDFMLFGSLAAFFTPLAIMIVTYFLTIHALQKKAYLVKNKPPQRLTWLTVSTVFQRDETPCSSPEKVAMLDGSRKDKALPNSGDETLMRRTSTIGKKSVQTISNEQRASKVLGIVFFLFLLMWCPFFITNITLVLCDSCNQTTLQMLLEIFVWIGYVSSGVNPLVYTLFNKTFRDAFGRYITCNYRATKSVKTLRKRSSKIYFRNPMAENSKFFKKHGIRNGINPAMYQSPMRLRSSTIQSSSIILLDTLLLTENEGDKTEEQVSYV

Each structure is given as a SMILES string. Values after ≈ are worked out from the molar mass of the structure shown. Values joined by “and” are separate entries in the source; they are usually repeats but may differ in a detail not shown here. Identical values can stand only once. Active and inactive are the calls of the source. No cut-off for these calls is given here.

With `COc1cccc(F)c1OC1CN(Cc2cnn(-c3ccccc3)c2C)C1`, the inhibition at 3 µM against hERG (KCNH2) is 56%. Further, the inhibitory constant (Ki) in data set [1] was greater than 1000 nM; in [2], greater than 1000 nM; at D(4) dopamine receptor, 148 nM and > 1000 nM; in data set [4] it was 76 nM; in data set [7], greater than 1000 nM; in data set [9], greater than 1000 nM. For the same molecule, in data set [3], the “inhibition (INH)” value is given as “Not Active”. Moreover, the “hair growth inhibition (active/inactive call)” value in the data set filed under Mus musculus was “Active”. Further, the half-life stood at 9.7 min in [5] and 30.2 min in data set [8]. Also, the half-maximal inhibitory concentration (IC50) on Protein smoothened [6] was 124 nM; at Protein smoothened [12], 8.27 nM. In addition, the apical-to-basolateral permeability (Papp A→B) at 10 µM in [10] stood at 11.3 ×10⁻⁶ cm/s. Besides, the solubility in data set [11] turned out to be 79 µg/mL (≈ 215 µM). Further, the Ratio with Zone of skin is on record as 0.52.
As to `Cc1nn(-c2ccccc2)c(Cl)c1CN1CCN(c2ccc(F)cc2)CC1`, the figures for the IC50 on Protein smoothened [6] and against Protein smoothened [12] were 10 nM and 1860 nM, respectively.
As for `COc1ccc(OC)c(C2CCN(Cc3cnn(-c4ccccc4F)c3C)C2)c1` (configuration not stated), the inhibition constant Ki is greater than 1000 nM in [13]; 15 nM in data set [14]; greater than 1000 nM at D(2) dopamine receptor; 103 nM in [7]; greater than 1000 nM in [9]; greater than 1000 nM in data set [15]. The inhibition constant Ki is greater than 1000 nM in data set [16], greater than 1000 nM at D(1A) dopamine receptor and 180 nM in [17]. Further, the “hair growth inhibition (active/inactive call)” value in the data set filed under Mus musculus is “Active”. Moreover, the IC50 amounted to 216 nM at Protein smoothened [6] and 40.8 nM on Protein smoothened [12].
For the molecule `NCCCC(N)(C(=O)O)C(F)F` (configuration not stated) [EFLORNITHINE], the “inhibition (INH)” value in the data set listed under Mus musculus was found to be 13.9%.
Consider `COc1ccc(N2CCN(Cc3cn(-c4ccccc4)nc3C)CC2)cc1`, for which the concentration for half-maximal inhibition (IC50) on Protein smoothened [6] and at Protein smoothened [12] was greater than 5000 nM in each case.
Turning to `Cc1nn(-c2ccccc2)c(C)c1/C=N/N1CCN(Cc2ccccc2)CC1`, the “inhibition (INH)” value in the data set listed under Mus musculus amounted to 3%. In addition, the IC50 came out at 25 nM on Protein smoothened [6] and 4.74 nM at Protein smoothened [12].
For the molecule `COc1ccccc1N1CCN(Cc2c(C)nn(-c3ccccc3)c2C)CC1`, the IC50 is greater than 5000 nM at Protein smoothened [6] and 1870 nM against Protein smoothened [12].
For the molecule `COc1ccc(N2CCN(Cc3c(C)nn(-c4ccc(F)cc4)c3C)CC2)cc1`, the IC50 at Protein smoothened [6] stood at 2000 nM; at Protein smoothened [12], 1690 nM.
As to `COc1cccc(N2CCN(Cc3cnn(-c4ccc(F)cc4)c3C)CC2)c1`, the IC50 amounted to 5 nM on Protein smoothened [6] and 64.7 nM against Protein smoothened [12].
For the molecule `Cc1c(CN2CCN(c3ccccc3)CC2)cnn1-c1ccccc1`, the results for the IC50 on Protein smoothened [6] and against Protein smoothened [12] were 96 nM and 78.4 nM, respectively.
For `Cc1c(CN2CCN(c3cccc(C(F)(F)F)c3)CC2)cnn1-c1ccccc1`, in that order: 333 nM and 328 nM.
Regarding `COc1cccc(N2CCN(Cc3c(C)nn(-c4ccc(F)cc4)c3C)CC2)c1`, the half-maximal inhibitory concentration (IC50) on Protein smoothened [6] is 20 nM; on Protein smoothened [12], 823 nM.
For the molecule `Cc1nn(-c2ccccc2)cc1CN1CCN(c2ccc(F)cc2)CC1`, the half-inhibitory concentration (IC50) on Protein smoothened [6] and against Protein smoothened [12] was greater than 5000 nM throughout.
`COc1ccc(N2CCN(Cc3cnn(-c4ccccc4)c3C)CC2)cc1`: the concentration for half-maximal inhibition (IC50) on Protein smoothened [6] came to 126 nM; against Protein smoothened [12], 105 nM.
